{
  "source": "patent US20200276181A1",
  "about": "“THIENOISOQUINOLINES AND THEIR DERIVATIVES FOR TARGETING TUBULIN, CH-TOG, AURORA A KINASE, TPX2, CDK5RAP2 AND/OR ASPM” (VALORBEC, SEC, priority 2017, published 2020)",
  "key": {"Aurora A kinase": {"molecular_target": "Aurora A kinase (Homo sapiens, UniProt O14965)", "sequence (O14965 whole entry)": "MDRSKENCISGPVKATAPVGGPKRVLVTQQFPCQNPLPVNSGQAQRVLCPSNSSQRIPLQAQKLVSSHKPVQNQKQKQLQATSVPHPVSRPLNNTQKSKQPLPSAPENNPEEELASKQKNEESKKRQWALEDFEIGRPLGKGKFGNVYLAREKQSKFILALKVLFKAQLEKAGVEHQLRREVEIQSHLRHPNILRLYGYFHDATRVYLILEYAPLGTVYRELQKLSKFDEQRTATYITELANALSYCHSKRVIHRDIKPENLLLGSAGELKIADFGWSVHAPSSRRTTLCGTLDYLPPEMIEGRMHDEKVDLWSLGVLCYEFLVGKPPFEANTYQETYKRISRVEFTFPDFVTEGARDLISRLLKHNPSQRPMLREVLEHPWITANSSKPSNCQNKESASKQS", "settings": "in vitro; cited from earlier work"}, "A549 cells [1]": {"system": "A549 cells", "experiment": "Spindle morphology, DAPI and tubulin staining", "format": "cell-based, human", "settings": "300 nM, 4 hours", "description": "FIG. 1A) is a line graph showing changes in the percentage of viable HFF-1, HeLa, A549 and HCT 116 cells after treatment with a range of C75 concentrations for 3 population doubling times (N=3). […] FIG. 1C) is a line graph showing the percentage of HeLa and HFF1 cells in mitosis after treatment with various concentrations of C75 for 8 hours. The bars indicate standard deviation. FIG. 1D) is a series of images showing cells that were fixed and co-stained for tubulin (microtubules) and DAPI (DNA). […] The scale bar for the cells is 10 μm. […] FIG. 1F) is a cartoon schematic showing the key features of a metaphase cell."}, "A549 cells [2]": {"system": "A549 cells", "experiment": "IC50 of derivatives (Table 5)", "format": "cell-based, human", "settings": "Table 5, cell line only named in b213 (A549)"}, "HFF-1 cells": {"system": "HFF-1 cells", "experiment": "Viability IC50, high-throughput automated analysis (Table 4)", "format": "cell-based", "settings": "Homo sapiens, 3 population doubling times", "description": "(§1) FIG. 1A) is a line graph showing changes in the percentage of viable HFF-1, HeLa, A549 and HCT 116 cells after treatment with a range of C75 concentrations for 3 population doubling times (N=3). […] There were more rounded mitotic cells after C75 treatment in comparison to the control. FIG. 1C) is a line graph showing the percentage of HeLa and HFF1 cells in mitosis after treatment with various concentrations of C75 for 8 hours. The bars indicate standard deviation. FIG. 1D) is a series of images showing cells that were fixed and co-stained for tubulin (microtubules) and DAPI (DNA). Treatment of HeLa cells with 300 nM C75 caused the mitotic spindles to be disorganized, while they were not affected in HFF1 cells. […] The scale bar for the cells is 10 μm. […] FIG. 1F) is a cartoon schematic showing the key features of a metaphase cell.\n(§2) The images in FIG. 1B) show fields of view of HeLa cells treated with (dimethyl sulfoxide) DMSO or 500 nM of C75. […] Higher concentrations of C75 caused spindle phenotypes in HFF1 cells, but they were quite different in comparison to HeLa cells (FIG. 1D)."}, "HCT 116 cells": {"system": "HCT 116 cells", "experiment": "Viability IC50, high-throughput automated analysis (Table 4)", "format": "cell-based", "settings": "Homo sapiens, 3 population doubling times", "description": "as §1, §2"}, "A549 cells [3]": {"system": "A549 cells", "experiment": "Viability IC50, high-throughput automated analysis (Table 4)", "format": "cell-based", "settings": "Homo sapiens, 3 population doubling times", "description": "as §1, §2"}, "HeLa cells": {"system": "HeLa cells", "experiment": "Viability IC50, high-throughput automated analysis (Table 4)", "format": "cell-based", "settings": "Homo sapiens, 3 population doubling times", "description": "as §1, §2"}, "[4]": {"system": "HeLa (cervical adenocarcinoma) cells", "experiment": "Cell viability IC50 (Table 3)", "format": "cell-based, human", "description": "(§3) To date, 30 variants with different structural modifications have been made. […] In particular, it is shown that C75 causes death in multiple cancer cells with IC50 values in the 100-400 nM range, including breast cancers (MCF7, BT549), lung cancer (A549), colorectal cancer (HCT116) in addition to HeLa cells (cervical cancer)."}, "[5]": {"system": "MCF-7 (mammary gland carcinoma) cells", "experiment": "Cell viability IC50 (Table 3)", "format": "cell-based, human", "settings": "MCF-7 cells", "description": "as §3"}, "[6]": {"system": "MCF7, BT549, A549, HCT116, HeLa cells", "experiment": "Viability in cancer vs non-cancer cell lines, summary of Table 3", "format": "cell-based, human", "description": "as §3"}, "[7]": {"system": "HFF1 (fibroblast) non-cancer cells", "experiment": "Cell viability IC50 (Table 3)", "format": "cell-based", "settings": "HFF-1 non-cancer cells", "description": "as §3"}, "[8]": {"system": "BT549 (breast ductal carcinoma) cells", "experiment": "Cell viability IC50 (Table 3)", "format": "cell-based, human", "description": "as §3"}, "[9]": {"system": "HeLa cells with lower levels of endogenous MCAK (MCAK RNAi)", "experiment": "Spindle phenotypes with MCAK RNAi", "format": "cell-based, human", "settings": "300 nM C75 or 30 nM colchicine", "source_text": "FIG. 8B) is a bar graph showing the proportion of spindle phenotypes in HeLa cells treated as in 8A).\nSince this is unique to C75, and ch-TOG RNAi was previously shown to be suppressed (partially) by MCAK RNAi, supporting C75's role in targeting ch-TOG or a component of the pathway."}, "[10]": {"system": "HeLa cells with lower levels of endogenous ch-TOG (ch-TOG RNAi)", "experiment": "Spindle phenotypes with ch-TOG RNAi", "format": "cell-based, human", "settings": "200 nM C75 or 20 nM colchicine", "source_text": "FIG. 7B) is a bar graph showing the proportion of phenotypes of the HeLa cells observed in the different conditions listed in 7A) (bipolar spindles in light grey; bipolar spindles with misaligned chromosomes in dark grey; multipolar/fragmented spindles in hatched lines; monopolar spindles in black)."}, "HeLa cells in metaphase": {"system": "HeLa cells in metaphase", "experiment": "Short treatment and washout, spindle recovery", "format": "cell-based, human", "settings": "5 minutes treatment, washout, imaged after 40 minutes", "source_text": "For each condition, 20,000 cells were counted per replicate (N=3). Line graphs (right) were made to better illustrate the relative changes in the cell cycle phases for the different treatments. Bars show standard deviation. The asterisks indicate the first statistically significant change in the G0/G1 and G2/M populations determined by a two-way ANOVA with a post-hoc Tukey's multiple comparisons test using 95% confidence intervals. FIG. 2B) is a line graph showing the percentage of HCT116 (p53−/−) cells, A549 cells, HeLa cells and H1299 cells in mitosis after treatment with various concentrations of C75 for one population doubling time. All of the cell lines show an increase in the proportion of mitotic cells after treatment with 200 nM C75. The bars indicate standard deviation. […]\nC75 was also tested for efficacy in different cancer cell lines. […] To further assess the role of C75 in disrupting spindles, HeLa cells were treated with 300 nM C75 for 4 hours and the spindle phenotypes were analyzed in more detail (FIG. 2E). […] To assess the affect of C75 on centrosomes, HeLa cells were treated with C75 or nocodazole (a drug that causes microtubule depolymerization as a control) for a short period of time (5 minutes), then the drugs were removed and the cells were analyzed for spindle phenotypes (schematic in FIG. 2G). […]"}, "[11]": {"molecular_target": "Purified free alpha and beta tubulin dimers (Homo sapiens, UniProt P07437+Q71U36)", "settings": "comparison drugs; cited from earlier work"}},
  "data": [
    {"smiles": "COc1cc(Nc2ncc3c(n2)-c2ccc(Cl)cc2C(c2c(F)cccc2OC)=NC3)ccc1C(=O)O", "note": "[Alisertib, reference compound]", "values": [
      {"measurement": "affinity for Aurora A kinase", "setting": "Aurora A kinase", "value": "~1", "unit": "nM"},
      {"measurement": "spindle phenotype", "setting": "A549 cells [1]", "value": "mitotic arrest and spindle phenotypes similar to what was observed for C75"}
    ]},
    {"smiles": "O=S(=O)(c1cccs1)N1Cc2ccccc2-c2sccc21", "note": "[Compound C87]", "values": [
      {"measurement": "IC50", "setting": "A549 cells [2]; Homo sapiens", "value": "> 1000", "unit": "nM"},
      {"measurement": "IC50", "setting": "HFF-1 cells", "value": "> 1000", "unit": "nM"},
      {"measurement": "IC50", "setting": "HCT 116 cells", "value": "> 1000", "unit": "nM"},
      {"measurement": "IC50", "setting": "A549 cells [3]", "value": "> 1000", "unit": "nM"},
      {"measurement": "IC50", "setting": "HeLa cells", "value": "> 1000", "unit": "nM"}
    ]},
    {"smiles": "COc1ccc(S(=O)(=O)N2Cc3ccccc3-c3sccc32)cc1", "note": "[Compound C90]", "values": [
      {"measurement": "IC50", "setting": "A549 cells [2]", "value": 781, "unit": "nM"},
      {"measurement": "IC50", "setting": "[4]", "value": 177, "unit": "nM"},
      {"measurement": "IC50", "setting": "[5]", "value": 149, "unit": "nM"}
    ]},
    {"smiles": "COc1ccc(S(=O)(=O)N2Cc3ccccc3-c3sc(I)cc32)cc1", "note": "[Compound C207]", "values": [
      {"measurement": "efficacy (effect on viability) in cancer cells vs. non-cancer cells", "setting": "[6]", "value": "higher efficacy"},
      {"measurement": "IC50", "setting": "A549 cells [2]", "value": 433, "unit": "nM"},
      {"measurement": "IC50", "setting": "[7]", "value": 150, "unit": "nM"},
      {"measurement": "IC50", "setting": "[4]", "value": 70, "unit": "nM"},
      {"measurement": "IC50", "setting": "[5]", "value": 86, "unit": "nM"},
      {"measurement": "IC50", "setting": "[8]", "value": 178, "unit": "nM"}
    ]},
    {"smiles": "COc1cc2c(c(OC)c1OC)-c1ccc(OC)c(=O)cc1[C@@H](NC(C)=O)CC2", "note": "[colchicine, reference compound]", "values": [
      {"measurement": "suppression of fragmented spindle phenotype by MCAK RNAi", "setting": "[9]", "value": "not"},
      {"measurement": "interaction with ch-TOG RNAi, fragmented spindle phenotype", "setting": "[10]", "value": "synergistic"}
    ]},
    {"smiles": "COC(=O)Nc1nc2ccc(C(=O)c3cccs3)cc2[nH]1", "note": "[nocodazole, reference compound]", "values": [
      {"measurement": "spindles reformed after drug removal", "setting": "HeLa cells in metaphase", "value": "bipolar spindles reformed"}
    ]},
    {"smiles": "CC[C@]1(O)C[C@@H]2CN(CCc3c([nH]c4ccccc34)[C@@](C(=O)OC)(c3cc4c(cc3OC)N(C)[C@H]3[C@@](O)(C(=O)OC)[C@H](OC(C)=O)[C@]5(CC)C=CCN6CC[C@]43[C@@H]65)C2)C1", "note": "[vinblastine]", "values": [
      {"measurement": "concentration causing a similar decrease of polymerization", "setting": "[11]", "value": "~5", "unit": "µM"}
    ]}
  ]
}
